Reference: US10494380B2, “Nitrogen-containing tricyclic derivatives having HIV replication inhibitory activity” (priority 2015, dated 2019)
Like-named read-outs stand apart in the source and are kept apart here.

Columns and labels:
[1] = target: CYP3A4 (Homo sapiens (Human), UniProt P08684); test: CYP3A4 (MDZ) MBI test (Test Example 6); settings: pooled human liver microsomes, midazolam 1-hydroxylation, preincubation 0 or 30 min
[2] = test system: sheep red blood cells (RBC); test: Photohemolysis test (Test Example 13); type: cell-based; settings: 0.0008 to 0.1 w/v %, 10 J/cm2 UV-irradiation (290-400 nm)
Text: Aliquots of sheep red blood cells (RBC) suspension prepared with medium to make a 2.5 v/v % concentration are dispensed into microplates. The compound of the present invention was desolved with a vehicle to make target concentrations and then these solutions were immediately added (in concentrations of 0.0008 to 0.1 w/v %) into the microplates. The mixtures on the microplates were exposed to 10 J/cm2 of UV-irradiation (UV-A and UV-B, 290-400 nm) with a GL20SE lamp (SANKYO DENKI) and a FL20S-BLB lamp (Panasonic). After the UV-irradiation, the mixtures were centrifuged. Aliquots of supernatant were transferred to a microplate. Absorbance of the supernatants was measured at 540 nm and 630 nm for judgement of the potential of phototoxicity. In the study, two endpoints were evaluated in biomembrane impairment (% of photohemolysis index; PI) and hyperoxidation of lipid membrane (methemoglobin formation; met-Hb) with the absorbance at 540 nm and 630 nm, respectively. PI and met-Hb were assessed based on the negative criteria (−), PI<10% and changes in absorbance at 630 nm<0.05, respectively. All else was judged as positive (+).

[3] = target: CYP2C9 (Homo sapiens (Human), UniProt P11712); test: CYP inhibition assay, tolbutamide methyl-hydroxylation (Test Example 4); type: in vitro ADME; settings: pooled human hepatic microsome, 100 μmol/L tolbutamide, 15 minutes, 37° C.
Chain of CYP2C9 (P11712 whole entry): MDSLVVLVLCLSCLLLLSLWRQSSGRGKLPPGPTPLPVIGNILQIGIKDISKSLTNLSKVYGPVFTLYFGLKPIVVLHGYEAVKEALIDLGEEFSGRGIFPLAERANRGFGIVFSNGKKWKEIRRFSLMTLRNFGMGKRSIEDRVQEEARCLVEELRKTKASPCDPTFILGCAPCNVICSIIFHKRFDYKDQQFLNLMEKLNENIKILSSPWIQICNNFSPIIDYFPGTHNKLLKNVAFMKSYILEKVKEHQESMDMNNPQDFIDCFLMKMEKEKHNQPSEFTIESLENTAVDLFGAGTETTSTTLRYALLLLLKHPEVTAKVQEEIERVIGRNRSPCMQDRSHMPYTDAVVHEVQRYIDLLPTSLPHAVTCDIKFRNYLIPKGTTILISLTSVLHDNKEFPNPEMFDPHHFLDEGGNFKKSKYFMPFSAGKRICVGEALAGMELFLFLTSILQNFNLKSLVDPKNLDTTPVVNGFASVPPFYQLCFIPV
Experimental: Using commercially available pooled human hepatic microsome, and employing, as markers, 7-ethoxyresorufin O-deethylation (CYP1A2), tolbutamide methyl-hydroxylation (CYP2C9), mephenytoin 4′-hydroxylation (CYP2C19), dextromethorphan O-demethylation (CYP2D6), and terfenadine hydroxylation (CYP3A4) as typical substrate metabolism reactions of human main five CYP enzyme forms (CYP1A2, 2C9, 2C19, 2D6, 3A4) an inhibitory degree of each metabolite production amount by a test compound was assessed.
The reaction conditions were as follows: substrate, 0.5 μmol/L ethoxyresorufin (CYP1A2), 100 μmol/L tolbutamide (CYP2C9), 50 μmol/L S-mephenytoin (CYP2C19), 5 μmol/L dextromethorphan (CYP2D6), 1 μmol/L terfenedine (CYP3A4); reaction time, 15 minutes; reaction temperature, 37° C.; enzyme, pooled human hepatic microsome 0.2 mg protein/mL; test drug concentration, 1, 5, 10, 20 μmol/L (four points).
Each five kinds of substrates, human hepatic microsome, and a test drug in 50 mmol/L Hepes buffer as a reaction solution was added to a 96-well plate as the composition ad described above, NADPH, as a coenzyme was added to initiate metabolism reactions as markers and, after the incubation at 37° C. for 15 minutes, a methanol/acetonitrile=1/1 (V/V) solution was added to stop the reaction. After the centrifugation at 3000 rpm for 15 minutes, resorufin (CYP1A2 metabolite) in the supernatant was quantified by a fluorescent multilabel counter and tolbutamide hydroxide (CYP2C9 metabolite), mephenytoin 4′ hydroxide (CYP2C19 metabolite), dextrorphan (CYP2D6 metabolite), and terfenadine alcohol (CYP3A4 metabolite) were quantified by LC/MS/MS.

[4] = test system: T125A mutant virus (HIV-1 NL-432 recombinant molecular clone, IN gene); test: HIV replication inhibition assay against integrase 124/125 mutant virus (Test Example 2); type: cell-based
Procedure, shortened: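 MT-4 cells (2.5×10^4 per well) infected with 60 pfu of 293T-derived HIV-1 NL-432 clone carrying integrase 124/125 point mutations, in presence of compound, cultured 4 days at 37 °C. Viability by MTT formazan at 560/690 nm; EC50 = concentration inhibiting 50% of virus-induced cytotoxicity.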

[5] = test system: HIV; type: cell-based; settings: EC50 in the presence of human serum (25%) versus without human serum, MT-4 cells
Procedure, shortened: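 Compound is preincubated 1 h at room temperature with human serum, or with medium alone as the serum-free control. MT-4 cells infected with HIV (1 h, 37° C) are added and cultured 4 days. EC50 is determined with and without serum; their ratio gives the potency shift.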

[6] = test system: HIV (HTLV-IIIB strain); test: HIV replication inhibition assay (Test Example 1; MT-4 cells, MTT); type: cell-based; settings: HIV (HTLV-IIIB strain), MT-4 cells, MTT, four days; for EC50: read-out: EC50; for EC90: read-out: EC90
Procedure, shortened: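 MT-4 cells (2.5×10^4/well) were infected with HIV HTLV-IIIB (60 pfu) in the presence of compound and cultured 4 days at 37 °C. Cell viability was read by MTT reduction (OD 560/690 nm). EC50 and EC90 are the concentrations inhibiting virus-induced cytotoxicity by 50% and 90%.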

[7] = Human immunodeficiency virus 1, MT4, read-out: EC50 against T125A mutant virus, T125A mutant virus (HIV-1 NL-432 IN gene), MT-4 cells, MTT
[8] = Human immunodeficiency virus 1, MT4, 96 h

Chain of CYP3A4 (P08684 whole entry): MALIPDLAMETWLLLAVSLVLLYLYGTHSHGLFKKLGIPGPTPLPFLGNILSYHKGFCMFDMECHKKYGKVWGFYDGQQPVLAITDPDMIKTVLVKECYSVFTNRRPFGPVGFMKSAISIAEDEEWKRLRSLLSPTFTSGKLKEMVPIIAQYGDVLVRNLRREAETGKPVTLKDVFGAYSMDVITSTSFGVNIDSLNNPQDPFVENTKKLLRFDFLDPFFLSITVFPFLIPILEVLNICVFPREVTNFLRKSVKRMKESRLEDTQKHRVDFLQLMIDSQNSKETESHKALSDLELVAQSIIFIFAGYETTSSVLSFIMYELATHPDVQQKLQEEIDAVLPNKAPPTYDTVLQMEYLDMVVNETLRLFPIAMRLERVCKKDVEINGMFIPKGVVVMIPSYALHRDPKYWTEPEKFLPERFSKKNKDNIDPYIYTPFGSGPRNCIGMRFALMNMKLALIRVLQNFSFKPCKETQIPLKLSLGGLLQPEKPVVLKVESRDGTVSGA

Structure (SMILES)	CYP3A4 (MDZ) MBI, shifted IC [1]	Photohemolysis test, potential of phototoxicity (PI and met-Hb) [2]	IC50 [3]	EC50 [4, 7]	Potency shift value [5]	EC50 [6, 8]	EC90 [6, 8]	EC50 ([4]; T125A mutant virus (HIV-1 NL-432 IN gene), MT-4 cells, MTT, read-out: EC50 against T125A mutant virus)	EC50 [6]	EC90 [6]
Cc1ccc(-c2c([C@H](OC(C)(C)C)C(=O)O)c(C)c3c4c2cc(C)n4CCN3c2ncc(OC3CCN(C)CC3)cn2)cc1 [Compound I-278]	(−) (When a shifted IC was 1.0 or less, this was defined as negative)	(−) (negative criteria (−), PI<10% and changes in absorbance at 630 nm<0.05, respectively)	> 20000 nM	13 nM	3.6	5.5 nM	11 nM	–	–	–
Cc1ccc(-c2c([C@H](OC(C)(C)C)C(=O)O)c(C)c3c4c2cc(C)n4CCN3c2ncc(CN3CCCCC3)cn2)cc1 [Compound I-308]	(−) (When a shifted IC was 1.0 or less, this was defined as negative)	(−) (negative criteria (−), PI<10% and changes in absorbance at 630 nm<0.05, respectively)	> 20000 nM	–	11	–	–	4.3 nM	1.6 nM	4.8 nM
Cc1ccc(-c2c([C@H](OC(C)(C)C)C(=O)O)c(C)c3c4c2cc(C)n4CCN3c2ncc(O[C@H]3CCN(C)C3)cn2)cc1 [Compound I-270]	(−) (When a shifted IC was 1.0 or less, this was defined as negative)	(−) (negative criteria (−), PI<10% and changes in absorbance at 630 nm<0.05, respectively)	> 20000 nM	13 nM	3.8	4.5 nM	7.5 nM	–	–	–
Cc1c([C@H](OC(C)(C)C)C(=O)O)c(-c2ccc(Cl)cc2)c2cc(C)n3c2c1N(c1ncc(F)cn1)CC3 [Compound I-122]	(−) (When a shifted IC was 1.0 or less, this was defined as negative)	(−) (negative criteria (−), PI<10% and changes in absorbance at 630 nm<0.05, respectively)	> 20000 nM	5.1 nM	23	1.3 nM	2.9 nM	–	–	–
Cc1c([C@H](OC(C)(C)C)C(=O)O)c(-c2ccc(Cl)cc2)c2cc(C)n3c2c1N(c1ncc(OCCN(C)C)cn1)CC3 [Compound I-244]	(−) (When a shifted IC was 1.0 or less, this was defined as negative)	(−) (negative criteria (−), PI<10% and changes in absorbance at 630 nm<0.05, respectively)	> 20000 nM	12 nM	3.4	4.8 nM	8 nM	–	–	–
Cc1ccc(N2CCn3c(C)cc4c(-c5ccc(Cl)cc5)c([C@H](OC(C)(C)C)C(=O)O)c(C)c2c43)nn1 [Compound I-262]	(−) (When a shifted IC was 1.0 or less, this was defined as negative)	(−) (negative criteria (−), PI<10% and changes in absorbance at 630 nm<0.05, respectively)	> 20000 nM	5 nM	13	3.2 nM	5.1 nM	–	–	–
